Results on 16 compounds are retold here after ChEMBL document CHEMBL4680255, “Antioxidant activity of novel quinazolinones bearing sulfonamide: Potential radiomodulatory effects on liver tissues via NF-κB/ PON1 pathway” (Eur J Med Chem, 2020).

Each structure is given as a SMILES string. The source made the active and inactive calls. The calls are words filed in the database; no cut-off is given here.

Data set [1] in a line: Antioxidant activity assessed as DPPH radical scavenging activity after 30 mins under dark condition by spectrophotometric analysis. It counts as functional.
Data set [2] in a line: Acute toxicity in ip dosed Swiss albino mouse measured after 24 hrs. It counts as organism-based. As to conditions: in vivo.
Data set [3] has as its system Mus musculus. Put plainly: Hepatoprotective activity in ip dosed Swiss albino mouse assessed as serum ALT level at 1/10 x LD50 treated at 2 hrs prior to 5 Gy gamma irradiation exposure on 1st day followed by compound treatment for next 2 days and measured at 24 hrs post last dose. Type of data set: functional, organism-based. As to conditions: time 3.0 day.
The subject of data set [4] is Mus musculus. Put plainly: Hepatoprotective activity in ip dosed Swiss albino mouse assessed as serum AST level at 1/10 x LD50 treated at 2 hrs prior to 5 Gy gamma irradiation exposure on 1st day followed by compound treatment for next 2 days and measured at 24 hrs post last dose. Type of data set: functional, organism-based. As to conditions: time 3.0 day.
Data set [5] deals with Mus musculus. As to the kind of experiment: Radioprotective activity in ip dosed Swiss albino mouse assessed as reduction in gamma-irradiation-induced decline in serum albumin level at 1/10 x LD50 treated at 2 hrs prior to 5 Gy gamma irradiation exposure on 1st day followed by compound treatment for next 2 days and measured at 24 hrs post last dose. Type of data set: functional, organism-based. As to conditions: time 3.0 day.

The subject of data set [6] is Mus musculus. As to the kind of experiment: Antioxidant activity in ip dosed Swiss albino mouse assessed as reduction in gamma irradiation-induced hepatic oxidative stress by measuring reduction in MDA level in liver at 1/10 x LD50 treated at 2 hrs prior to 5 Gy gamma irradiation exposure on 1st day followed by compound treatment for next 2 days and measured at 24 hrs post last dose. Type of data set: functional. As to conditions: time 3 day.

Data set [7] relates to Mus musculus. As to the kind of experiment: Antioxidant activity in ip dosed Swiss albino mouse assessed as reduction in gamma irradiation-induced hepatic oxidative stress by measuring reduction in ROS level in liver at 1/10 x LD50 treated at 2 hrs prior to 5 Gy gamma irradiation exposure on 1st day followed by compound treatment for next 2 days and measured at 24 hrs post last dose. As to conditions: time 3 day. Type of data set: functional.

In data set [8] the test system is Mus musculus. As to the kind of experiment: Antioxidant activity in ip dosed Swiss albino mouse assessed as reduction in gamma irradiation-induced hepatic oxidative stress by measuring increase in SOD activity in liver at 1/10 x LD50 treated at 2 hrs prior to 5 Gy gamma irradiation exposure on 1st day followed by compound treatment for next 2 days and measured at 24 hrs post last dose. Type of data set: functional. Details: scale not given: the % may be the effect or the level left. As to conditions: time 3 day.

For data set [9], the system named is Mus musculus. Put plainly: Antioxidant activity in ip dosed Swiss albino mouse assessed as reduction in gamma irradiation-induced hepatic oxidative stress by measuring increase in Zn2+ concentration in liver at 1/10 x LD50 treated at 2 hrs prior to 5 Gy gamma irradiation exposure on 1st day followed by compound treatment for next 2 days and measured at 24 hrs post last dose. Details: scale not given: the % may be the effect or the level left. As to conditions: time 3 day. Type of data set: functional.

Data set [10] relates to Mus musculus. As to the kind of experiment: Radioprotective activity in ip dosed Swiss albino mouse assessed as reduction in gamma irradiation-induced decrease in PON1 activity by measuring increase in PON1 activity in liver at 1/10 x LD50 treated at 2 hrs prior to 5 Gy gamma irradiation exposure on 1st day followed by compound treatment for next 2 days and measured at 24 hrs post last dose. It counts as functional. The arrangement: scale not given: the % may be the effect or the level left. As to conditions: time 3 day.

Data set [11] has as its system Mus musculus. Put plainly: Radioprotective activity in ip dosed Swiss albino mouse assessed as reduction in gamma irradiation-induced increase in NF-kappaB activity by measuring decrease in NFkappaB activity in liver at 1/10 x LD50 treated at 2 hrs prior to 5 Gy gamma irradiation exposure on 1st day followed by compound treatment for next 2 days and measured at 24 hrs post last dose by ELISA. It counts as functional. As to conditions: time 3 day.

Consider `Cn1c(NC(=O)CSc2nc3ccccc3c(=O)n2-c2ccc(S(N)(=O)=O)cc2)cc(=O)n(C)c1=O`, for which the IC50 in data set [1] was 56.4 µM. On to `NS(=O)(=O)c1ccc(-n2c(SCC(=O)Nc3c[nH]c(=O)[nH]c3=O)nc3ccccc3c2=O)cc1`, for which the IC50 in data set [1] came out at 54.4 µM. On to `NS(=O)(=O)c1ccc(-n2c(SCC(=O)Nc3nnc(C(F)(F)F)s3)nc3ccccc3c2=O)cc1`, for which, in data set [1], the IC50 was determined as 107 µM. Regarding `CCOC(=O)c1ccccc1NC(=O)CSc1nc2ccccc2c(=O)n1-c1ccc(S(N)(=O)=O)cc1`, the IC50 in data set [1] was determined as 89.5 µM. Regarding `NS(=O)(=O)c1ccc(-n2c(SCC(=O)Nc3cnccn3)nc3ccccc3c2=O)cc1`, the IC50 in data set [1] worked out at 45.8 µM. In [2], this compound displayed an LD50 at 24 h of 200 mg/kg. Moreover, the outcome with Mus musculus [3] and with Mus musculus [4] was inactive. Moreover, the outcome in the data set on Mus musculus [5] was Active. For the same compound, the “inhibition (INH)” value turned out to be 49% in the data set on Mus musculus [6], 30.6% in the data set with Mus musculus [7] and 45.6% in the data set with Mus musculus [11]. The Activity in the data set with Mus musculus [8] is recorded as 157%; with Mus musculus [9] it was 39.4%; in the data set on Mus musculus [10], 104.8%. Turning to `CCOc1ccc2nc(NC(=O)CSc3nc4ccccc4c(=O)n3-c3ccc(S(N)(=O)=O)cc3)sc2c1`, the IC50 in data set [1] was 50.5 µM. Turning to `CCOC(=O)c1cccc(NC(=O)CSc2nc3ccccc3c(=O)n2-c2ccc(S(N)(=O)=O)cc2)c1`, the IC50 in data set [1] turned out to be 65.7 µM.

On to `NS(=O)(=O)c1ccc(-n2c(SCC(=O)Nc3nc4ccc([N+](=O)[O-])cc4s3)nc3ccccc3c2=O)cc1`, for which the IC50 in data set [1] amounted to 94.8 µM. `NS(=O)(=O)c1ccc(-n2c(SCC(=O)NC3CCN(Cc4ccccc4)CC3)nc3ccccc3c2=O)cc1`: the IC50 in [1] came out at 104 µM. Still for that read-out and setting: the value for `CCOC(=O)N1CCC(NC(=O)CSc2nc3ccccc3c(=O)n2-c2ccc(S(N)(=O)=O)cc2)CC1` was 108 µM. On to `Cc1cc(NC(=O)CSc2nc3ccccc3c(=O)n2-c2ccc(S(N)(=O)=O)cc2)no1`, for which the concentration for half-maximal inhibition (IC50) in data set [1] turned out to be 82.4 µM. As for `NS(=O)(=O)c1ccc(-n2c(SCC(=O)NCCN3CCOCC3)nc3ccccc3c2=O)cc1`, the IC50 in data set [1] came out at 69.8 µM. On to `NS(=O)(=O)c1ccc(-n2c(SCC(=O)Nc3nccs3)nc3ccccc3c2=O)cc1`, for which, in data set [1], the IC50 was determined as 125 µM. On the same count and under the same terms, the value for `NS(=O)(=O)c1ccc(-n2c(SCC(=O)NN3CCOCC3)nc3ccccc3c2=O)cc1` was 66.4 µM; that for `O=C1O[C@H]([C@@H](O)CO)C(O)=C1O` [ASCORBIC ACID] was 132 µM. Still for that read-out and setting: the value for `CN1C(=O)c2ccc(NC(=O)CSc3nc4ccccc4c(=O)n3-c3ccc(S(N)(=O)=O)cc3)cc2C1=O` was 48.5 µM.
